For test [1], the target named is T1, F508del-CFTR (Homo sapiens, UniProt P13569, DEL508-508). The experiment in a line: Pharmacochaperone trafficking assay: F508del-CFTR cell surface expression in U2OS cells. Type of test: cell-based. Set-up: host or cells: U2OS (PathHunter U2OS-F508del-CFTR MEM-EA). The protocol:
This assay was adapted from the DiscoverX PathHunter pharmacochaperone trafficking assay, which is based on the enzyme fragment complementation technique. Briefly, the U2OS-F508del-CFTR cell line (DiscoveRx, #93-0987C3) is engineered to coexpress (i) human F508del-CFTR tagged with a Prolink (PK = short β-galactosidase fragment) and (ii) the remainder of the β-galactosidase enzyme [enzyme acceptor (EA)] localized to the PM. Incubation with compounds that increase trafficking of PK-tagged F508del-CFTR to the PM will lead to complementation of the EA fragment to form a functional β-galactosidase enzyme, which is quantified by a chemiluminescence reaction reporting cell surface CFTR expression. The same principle applies to the counterscreen using U2OS-ADRB2(W158A) cells (DiscoveRx, #93-0986C3). Freshly thawed U2OS-F508del-CFTR and U2OS-ADRB2(W158A) were seeded at 3500 or 5000 cells per well, respectively, in 20 μl per well of cell assay medium [McCoy (Life Technologies), 10% FBS, penicillin (100 U/ml), and streptomycin ([…])] in a 384 white low-volume plate (Corning). Predilutions of compounds in dimethyl sulfoxide (DMSO) were prepared in a 384-well polypropylene plate using an automated liquid-handling system. Dilution series were then transferred into cell assay medium in a polypropylene 384-well plate (Greiner) to obtain 5× concentrated aqueous working stocks. Five hours after cell seeding, 5× working stocks (5 μl per well) were added to the cells (20 μl per well) for an incubation overnight at 37°C. The next day, after 2 hours at room temperature, the cell plates were incubated with 10 μl of Flash detection reagent (#93-0247, DiscoverX) for 30 min, and chemiluminescence signals were detected with a microplate reader (Synergy MX, Agilent BioTek). Chemiluminescence data were normalized to the signal of basal vehicle-treated cells, and mean chemiluminescence values were converted to concentration-response curves for determination of EC50 and Emax values (GraphPad Prism).
Both above described cell lines [U2OS-F508del-CFTR and U2OS-ADRB2(W158A)] and assays were also used in the high-throughput screening campaign in which compounds were tested at 10 μM concentration with LUM (3 μM) or propranolol (100 nM) serving as 100% controls.

In test [2] the target is T2, MSD2-NBD2 fragment (M837-L1480-CFTR) (Homo sapiens, UniProt P13569).
T2 construct: expressed in transfected cells; host or cells: T-REx HEK293
T2 sequence (P13569 837-1480): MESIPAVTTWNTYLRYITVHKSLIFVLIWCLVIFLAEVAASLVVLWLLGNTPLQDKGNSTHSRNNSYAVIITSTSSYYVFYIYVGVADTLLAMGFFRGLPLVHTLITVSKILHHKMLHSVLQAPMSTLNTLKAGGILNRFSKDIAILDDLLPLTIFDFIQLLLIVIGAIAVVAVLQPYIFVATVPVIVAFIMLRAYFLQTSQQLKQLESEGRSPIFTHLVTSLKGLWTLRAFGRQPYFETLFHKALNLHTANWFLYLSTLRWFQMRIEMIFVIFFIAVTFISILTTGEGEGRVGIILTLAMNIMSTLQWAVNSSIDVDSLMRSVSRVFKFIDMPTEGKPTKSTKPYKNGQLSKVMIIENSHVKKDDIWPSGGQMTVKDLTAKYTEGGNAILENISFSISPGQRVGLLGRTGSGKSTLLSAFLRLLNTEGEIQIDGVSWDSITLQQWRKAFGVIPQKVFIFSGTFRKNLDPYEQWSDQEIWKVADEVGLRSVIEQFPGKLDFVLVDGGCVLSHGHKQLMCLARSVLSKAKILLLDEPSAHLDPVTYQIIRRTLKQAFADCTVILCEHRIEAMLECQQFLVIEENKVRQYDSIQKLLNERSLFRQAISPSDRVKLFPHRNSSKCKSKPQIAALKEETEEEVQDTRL
The experiment in a line: Truncated CFTR construct levels (immunoblotting), MSD2-NBD2 fragment. Particulars: HEK-TREx cells, 40 hours; C4a 10 μM. Type of test: cell-based. An excerpt:
(§1) The human CFTR expressing HEK cell pools with the mutations described below were generated by integrase-mediated homologous recombination of the CFTR sequence into the T-REx HEK293 background (Thermo Fisher Scientific). This expression system allows the tetracycline-inducible expression of genes of interest from one defined insertion site. Parental T-REx-HEK293 cells were cultivated in growth medium: Dulbecco’s modified Eagle’s medium + GlutaMAX-I (#31966, Life Technologies), 10% dialyzed FBS (Gibco, #26400), penicillin (100 U/ml), streptomycin (100 μg/ml), hygromycin B (0.1 mg/ml; Life Technologies), blasticidin (5 μg/ml; Invitrogen, #R210-01), and 0.1 mM nonessential amino acid solution (Invitrogen, #11140-035). Recombinant T-REx-HEK-CFTR cells were generated by lipofectamine transfection (Life Technologies) of plasmids containing mutated versions of CFTR (RefSeq NM_000492) and then cultivated in selection medium [growth medium containing Geneticin (1 mg/ml) (Invitrogen, #10131-027) instead of hygromycin]. The plasmid constructs were synthetized by GENEART (Thermo Fisher Scientific) and designed with the WT CFTR intron 5 to 6 (880 nucleotides) to prevent leaky expression issues during the cloning process in bacteria. […]

Test [3] has as its system CFTR. Further details: method as in earlier work. The settings on record: ref [27] (GLPG-2737); ref [21], [26], [27] (ELX); cited from earlier work.
Test [4] concerns the target T1, F508del-CFTR. The test is described as follows: Halide-sensitive YFP quenching assay in U2OS-F508del-CFTR-YFP cells. Type of test: cell-based. Further details: host or cells: U2OS (PathHunter U2OS-F508del-CFTR MEM-EA). The protocol: U2OS-F508del-CFTR cells expressing Topaz-YFP F46L/H148Q/I152L were seeded at 20,000 cells per well into 384-well black clear-bottom plates in 40 μl per well growth medium (Mc COY’s 5A, Gibco, 10% FBS, penicillin/streptomycin), containing the various CFTR correctors at the indicated concentrations. The cells were coincubated with the compounds for 24 hours (37°C, 5% CO2). The next day, plates were washed twice with PBS^+ (55 μl per well; PBS containing 0.9 mM Ca^2+ and 0.5 mM Mg^2+). PBS^+ was fully removed, and cells were supplemented with 15 μl PBS^+. Then, 5 μl of 4× concentrated stocks of IVA or vehicle in dilution buffer [PBS^+, 0.1 μM forskolin, and 0.2% bovine serum albumin (fatty acid free) (pH 7.4)] were added and incubated for 30 min in the dark. For experiments with I-172 (Sigma- Aldrich), the inhibitor was added to the mix with either IVA or vehicle to reach a final concentration in cells of 20 μM. Then, plates were transferred to the FLIPR Tetra (fluorescence imaging plate reader; Molecular Devices: excitation: 470 to 495 nm; emission: 526 to 585 nm), baseline fluorescence reading of the YFP signal was performed for 6 s (10 × 0.6 s intervals) after which 25 μl of iodide buffer [137 mM NaI, 2.7 mM KCl, 1.5 mM KH2PO4, 8.1 mM Na2HPO4, 1 mM CaCl2, and 0.5 mM MgCl2 (pH 7.4)] was added, and fluorescence reading was continued for 70 s (50 × 0.6 s intervals; 20 x 2 s intervals) to assess YFP quenching through CFTR-mediated iodide influx. For analysis, fluorescence traces were aligned and normalized at the last time point before iodide addition (normalized fluorescence = 1). Normalized fluorescence values obtained 20 s after the beginning of the assay were used to assess the degree of YFP quenching, i.e., CFTR function (see fig. S1J). […] Then, plates were read and analyzed as above. […] Then, plates were transferred to the FLIPR Tetra and read and analyzed as above.

Test [5] relates to F508del.K14A-CFTR. The test is described as follows: Site-directed mutagenesis immunoblotting, HEK-TREx, F508del.K14A-CFTR. Type of test: cell-based, human. The settings on record: 40 h, 2 μM.
From the text: as §1
Background: In western blotting, separated proteins are transferred to a membrane and probed.

Test [6] deals with F508del.L15W-CFTR. The test is described as follows: Site-directed mutagenesis immunoblotting, HEK-TREx, F508del.L15W-CFTR. Type of test: cell-based, human. Particulars: 40 h, 2 μM.
From the text: as §1

[7] abbreviates: U2OS cells, overnight treatment.

Structures are written as SMILES.

T1 sequence (P13569 with tags, fused parts or gaps DEL508-508): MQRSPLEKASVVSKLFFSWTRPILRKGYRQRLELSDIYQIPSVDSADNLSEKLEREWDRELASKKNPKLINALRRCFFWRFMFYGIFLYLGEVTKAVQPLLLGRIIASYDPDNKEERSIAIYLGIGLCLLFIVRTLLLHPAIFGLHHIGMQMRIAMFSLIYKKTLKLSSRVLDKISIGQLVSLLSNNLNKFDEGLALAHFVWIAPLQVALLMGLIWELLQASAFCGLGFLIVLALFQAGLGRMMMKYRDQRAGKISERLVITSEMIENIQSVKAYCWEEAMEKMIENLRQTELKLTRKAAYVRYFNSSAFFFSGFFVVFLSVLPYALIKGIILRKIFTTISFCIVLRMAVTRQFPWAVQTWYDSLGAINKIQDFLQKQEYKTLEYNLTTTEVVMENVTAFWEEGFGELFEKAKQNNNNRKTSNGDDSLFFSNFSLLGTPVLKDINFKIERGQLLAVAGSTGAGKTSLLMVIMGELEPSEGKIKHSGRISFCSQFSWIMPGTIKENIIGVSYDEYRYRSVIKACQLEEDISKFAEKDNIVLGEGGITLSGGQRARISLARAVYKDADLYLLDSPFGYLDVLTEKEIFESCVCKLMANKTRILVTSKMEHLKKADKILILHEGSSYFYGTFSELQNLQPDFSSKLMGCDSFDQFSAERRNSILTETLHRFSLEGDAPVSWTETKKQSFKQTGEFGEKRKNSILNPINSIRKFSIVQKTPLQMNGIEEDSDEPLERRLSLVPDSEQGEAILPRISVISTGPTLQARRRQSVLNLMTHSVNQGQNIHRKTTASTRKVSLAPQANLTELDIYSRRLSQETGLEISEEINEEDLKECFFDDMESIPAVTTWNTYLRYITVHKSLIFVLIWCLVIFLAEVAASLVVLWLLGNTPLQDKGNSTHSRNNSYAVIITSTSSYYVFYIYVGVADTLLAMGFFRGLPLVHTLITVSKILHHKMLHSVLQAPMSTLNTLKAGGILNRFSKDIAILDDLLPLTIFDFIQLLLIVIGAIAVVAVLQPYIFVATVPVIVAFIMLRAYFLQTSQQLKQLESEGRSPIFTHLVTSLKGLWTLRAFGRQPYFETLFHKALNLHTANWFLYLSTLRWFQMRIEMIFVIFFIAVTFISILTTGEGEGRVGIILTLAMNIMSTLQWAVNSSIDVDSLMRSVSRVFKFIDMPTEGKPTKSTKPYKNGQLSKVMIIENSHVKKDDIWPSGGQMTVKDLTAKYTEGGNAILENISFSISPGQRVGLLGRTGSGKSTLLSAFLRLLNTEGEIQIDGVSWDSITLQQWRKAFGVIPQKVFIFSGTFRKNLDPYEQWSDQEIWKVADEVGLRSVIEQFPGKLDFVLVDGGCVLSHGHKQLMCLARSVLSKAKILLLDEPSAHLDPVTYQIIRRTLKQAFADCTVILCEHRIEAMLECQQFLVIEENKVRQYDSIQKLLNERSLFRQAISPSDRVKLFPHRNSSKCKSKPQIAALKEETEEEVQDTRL

Regarding `C[C@@H]1CN(c2nc(-n3ccc(OCCC4(C(F)(F)F)CC4)n3)ccc2C(=O)NS(=O)(=O)c2ccccc2)C(C)(C)C1` [BAM, bamocaftor], in test [1] (setting [7]), the “maximal F508del-CFTR surface expression (Emax)” value is “seven- to ninefold”. For `COc1ccc(Cl)cc1Nc1nc(-c2sc(NC(=O)c3ccccc3)nc2C)cs1` [C4a, corrector 4a], the “expression of the MSD2-NBD2 fragment” value in test [2] is “increased the expression of its glycosylated and nonglycosylated forms”. For the same molecule, in test [1] (setting [7]), the “maximal F508del-CFTR surface expression (Emax)” value is listed as “four- to fivefold”. Also, the “additivity in F508del-CFTR surface expression” value in test [1] (applied on top of / titrated onto IDOR-4) is recorded as “full additivity or even synergy”. On to `O=C(O)c1ccc([C@H]2C[C@@H](NC(=O)C3(c4ccc5c(c4)OC(F)(F)O5)CC3)c3ccc(OC(F)F)cc3O2)cc1` [GAL, galicaftor], for which the “maximal F508del-CFTR surface expression (Emax)” value in test [1] (setting [7]) is on record as “four- to fivefold”. As to `COC1CCN(C2CCN(c3cc(C(=O)NS(=O)(=O)N(C)C)nc4c3c(C3CCC3)nn4-c3ccc(F)cc3)CC2)CC1` [GLPG-2737], the “acute effect on CFTR currents” value in test [3] is recorded as “acute inhibitory”.

As for `O=C(O)c1ccc(/C=C2\SC(=S)N(c3cccc(C(F)(F)F)c3)C2=O)cc1` [I-172], the “effect on corrector-induced YFP quenching responses” value in test [4] (I-172 20 μM) is “blocked”. A word on the EC50: it is the concentration needed to bring the measured effect to its halfway point. For `CC(C)CC1C(=O)N(C)CC(=O)NC(Cc2ccccc2)COc2ccccc2C(=O)NC(C(=O)NCCc2ccccc2)CC(=O)N1C` (stereo not drawn) [IDOR-0], in test [1] (setting [7]), the half-maximal effective concentration (EC50) worked out at 1600 nM and the “maximal F508del-CFTR surface expression (Emax)” value worked out at 3 fold over baseline. Regarding `COc1nc(C)cc2c1C(=O)NC(C(=O)NCCc1cccc(N=[N+]=[N-])c1)CC(=O)N(C)C(CC(C)C)C(=O)N(C)C(CC1CCCC1)C(=O)NC(Cc1ccccc1)CO2` (stereo not drawn) [IDOR-6A], the “weaker correction by macrocycles as compared to [LUM + BAM]” value in test [5] is on record as “two- to fourfold”. For the same molecule, in test [6], the “correction by macrocycles versus [LUM + BAM]” value was “little difference”. `CC(C)(C)c1cc(C(C)(C)C)c(NC(=O)c2c[nH]c3ccccc3c2=O)cc1O` [IVA, ivacaftor]: the EC80 of potentiator in test [4] (concentration used as ~EC80) is about 2 nM.

The values are drawn from article PMC11801377, “A uniquely efficacious type of CFTR corrector with complementary mode of action” (Science Advances, 2024).
